Assay results taken from patent US20220279787A1, “a-Substituted Phenyl Structure-Containing Compound, Preparation Method Thereof, and Disinfectant” (Henan Ruibo Pharmaceutical Technology Co. Ltd., priority 2019, published 2022).

Tests used:
Assay type in all cases: cell-based
[1] = tested on: Pseudomonas aeruginosa ATCC 27853; assay: Suspension quantitative sterilization experiment, Pseudomonas aeruginosa ATCC 27853; conditions: for Activity (killing logarithmic value): suspension method, 6.25 g/L, action time 30 min
Experimental: (§1) (5) Operation Method of Suspension Quantitative Experiment:
(§2) a. The freeze-dried strain tube was provided, opened up under an aseptic condition, and an appropriate amount of nutrient broth was added thereto with a capillary pipette. The strain was melted and dispersed by gently blowing and sucking several times. A test tube containing 5.0 mL-10.0 mL of nutrient broth medium was provided, and a small amount of bacterial suspension was dropped thereto, and incubated at 37° C. for 18 h-24 h. The bacterial suspension of the first generation culture was taken by using an inoculation loop, and streaked and inoculated onto a nutrient agar medium plate, and incubated at 37° C. for 18 h-24 h. The typical colonies from the second generation culture was picked out, inoculated onto a nutrient agar slant, and incubated at 37° C. for 18 h-24 h, obtaining the third generation culture.
(§3) b. The monoclonal strains of the third generation culture of Escherichia coli ATCC 25922, Staphylococcus aureus ATCC 29213, and Pseudomonas aeruginosa ATCC 27853 were picked out respectively and placed in 3 mL of NMB. The strains were shaken in a constant temperature culture shaker for 3 h with a rotation speed of 220 rpm, obtaining a bacterial suspension with a concentration of (1-5)×10^8 CFU/mL.
(§4) c. 0.5 mL of bacterial suspension was added to a sterile test tube, and 0.5 mL of an organic interfering substance (0.03 mol/L PBS buffer) was then added thereto. They were mixed to be uniform, and placed in a water bath at 20° C.±1° C. for 5 min. 4.0 mL of the sample to be tested prepared in step (1) was drawn with a sterile pipette and injected into the mixed solution, mixed quickly, and the time was recorded immediately.
(§5) d. After the experimental bacteria interacted with the sample to be tested for the predetermined time of 1 min, 5 min, 15 min and 30 min. 0.5 mL of the mixture of the experimental bacteria and the sample to be tested was drawn respectively and added to 4.5 mL of a neutralizer, and mixed to be uniform.
(§6) e. After 10 min of neutralization, 1.0 mL of the sample solution was drawn, and the number of viable bacteria was determined by viable count method. After the viable count method, sample solution of each pipette was inoculated onto 2 plates. When the number of colonies growing on the plate was large, 10-fold dilution was performed, and then the viable bacteria was cultured and counted.
(§7) f. At the same time, PBS buffer was used to replace the sample to be tested, and a parallel test was performed as a positive control.
(§8) g. All test samples were placed in a 37° C. incubator overnight, and the results were observed.
(§9) h. The experiment was repeated for 3 times, the concentration of viable bacteria (CFU/mL) of each group was calculated, and converted to logarithmic value (N), and then the killing logarithmic value was calculated according to the following equation:
(§10) Killing logarithmic value (KL)=the logarithmic value of the average viable bacteria concentration of the control group (No)−the logarithmic value of the viable bacteria concentration of the test group (Nx).
(§11) When calculating the killing logarithmic value, two digits after the decimal point was kept, and digital round-off was allowed.

[2] = tested on: Escherichia coli ATCC 25922; assay: Suspension quantitative sterilization experiment, Escherichia coli ATCC 25922; conditions: for Activity (killing logarithmic value): suspension method, 6.25 g/L, action time 30 min
Experimental: as §1, §2, §3, §4, §5, §6, §7, §8, §9, §10, §11

[3] = tested on: Staphylococcus aureus ATCC 29213; assay: Suspension quantitative sterilization experiment, Staphylococcus aureus ATCC 29213; conditions: for Activity (killing logarithmic value): suspension method, 6.25 g/L, action time 30 min
Experimental: as §1, §2, §3, §4, §5, §6, §7, §8, §9, §10, §11

[4] = tested on: Bacillus subtilis var. niger spores ATCC 9372; assay: Suspension quantitative experiment, Bacillus subtilis var. niger spores; conditions: Bacillus subtilis, ATCC9372, 0.5 h, read-out: Activity (killing logarithmic value)
Experimental: (4) Operation Method of Suspension Quantitative Experiment:
a. The Bacillus subtilis var. niger spores ATCC 9372 freeze-dried strain tube was provided, opened up under an aseptic condition, and an appropriate amount of nutrient broth was added thereto with a capillary pipette. The strain was melted and dispersed by gently blowing and sucking several times. A test tube containing 5.0 mL-10.0 mL of nutrient broth medium was provided, and a small amount of bacterial suspension was dropped thereto, and incubated at 37° C. for 18 h-24 h. The bacterial suspension of the first generation culture was taken by using an inoculation loop.
b. The monoclonal strains of the first generation culture were picked out and placed in 3 mL of NMB. The strains were shaken in a constant temperature culture shaker for 3 h with a rotation speed of 220 rpm, obtaining a bacterial suspension with a concentration of (1-5)×10^8 CFU/mL.
as §4
d. After the experimental bacteria interacted with the sample to be tested for the predetermined time. 0.5 mL of the mixture of the experimental bacteria and a disinfectant was drawn respectively and added to 4.5 mL of a neutralizer, and mixed to be uniform.
as §6
h. At the same time, PBS buffer was used to replace the sample to be tested, and a parallel test was performed as a positive control.
f. All test samples were placed in a 37° C. incubator overnight, and the results were observed.
g. The experiment was repeated for 3 times, the concentration of viable bacteria (CFU/mL) of each group was calculated, and converted to logarithmic value (N), and then the killing logarithmic value was calculated according to the following equation:
as §10, §11

## Cc1cc(O)cc(C)c1Cl [4-Chloro-3,5-dimethylphenol solution, 4-chloro-3,5-dimethylphenol]
[1]; 0.15 g/L, 1 min
  Killing logarithmic value: 0.78
[1]; 0.15 g/L, 5 min
  Killing logarithmic value: 0.87
[1]; 0.15 g/L, 15 min
  Killing logarithmic value: 0.94
[1]; 0.15 g/L, 30 min
  Killing logarithmic value: 0.96
[1]; 0.31 g/L, 1 min
  Killing logarithmic value: 4.77
[1]; 0.31 g/L, 5 min
  Killing logarithmic value: 4.87
[1]; 0.31 g/L, 15 min
  Killing logarithmic value: 4.91
[1]; 0.31 g/L, 30 min
  Killing logarithmic value: 4.95
[2]; 0.15 g/L, 1 min
  Killing logarithmic value: 1.69
[2]; 0.15 g/L, 5 min
  Killing logarithmic value: 1.78
[2]; 0.15 g/L, 15 min
  Killing logarithmic value: 2.32
[2]; 0.15 g/L, 30 min
  Killing logarithmic value: 2.99
[2]; 0.31 g/L, 1 min
  Killing logarithmic value: 6.17
[2]; 0.31 g/L, 5 min
  Killing logarithmic value: 6.17
[2]; 0.31 g/L, 15 min
  Killing logarithmic value: 6.17
[2]; 0.31 g/L, 30 min
  Killing logarithmic value: 6.17
[3]; 0.15 g/L, 1 min
  Killing logarithmic value: 2.07
[3]; 0.15 g/L, 5 min
  Killing logarithmic value: 2.74
[3]; 0.15 g/L, 15 min
  Killing logarithmic value: 2.90
[3]; 0.15 g/L, 30 min
  Killing logarithmic value: 3.16
[3]; 0.31 g/L, 1 min
  Killing logarithmic value: 3.12
[3]; 0.31 g/L, 5 min
  Killing logarithmic value: 3.30
[3]; 0.31 g/L, 15 min
  Killing logarithmic value: 3.45
[3]; 0.31 g/L, 30 min
  Killing logarithmic value: 4.13

## CNC(=O)C(c1ccc(O)c(O)c1)C1CCCCC1 (stereo not drawn) [Example 1, 2-cyclohexyl-2-(3,4-dihydroxyphenyl)-N-methylacetamide]
[1]
  Activity (killing logarithmic value): 1.31
[4]
  log reduction at 15000 µg/mL: 1.35
[2]
  Activity (killing logarithmic value): 1.23
[3]
  Activity (killing logarithmic value): 1.16

## CC(C)NC(=O)C(c1ccccc1)c1ccc(O)cc1 (stereo not drawn) [Example 2, 2-(4-hydroxyphenyl)-N-isopropyl-2-phenylacetamide]
[1]
  Activity (killing logarithmic value): 0.99
[4]
  log reduction at 15000 µg/mL: 0.98
[2]
  Activity (killing logarithmic value): 0.97
[3]
  Activity (killing logarithmic value): 0.89

## CNC(=O)C(c1ccccc1)c1ccc(F)c(F)c1 (stereo not drawn) [Example 3, 2-(3,4-difluorophenyl)-N-methyl-2-phenylacetamide]
[1]
  Activity (killing logarithmic value): 1.56
[4]
  log reduction at 15000 µg/mL: 2.07
[2]
  Activity (killing logarithmic value): 1.14
[3]
  Activity (killing logarithmic value): 1.54
